Results as given in patent US20180008579A1, “PHARMACEUTICAL COMPOSITION FOR PREVENTING OR TREATING CHRONIC MYELOID LEUKEMIA AND METHOD USING THE SAME” (MEDPACTO INC., priority 2015, published 2018).

Legend:
TT-CML affected mouse [1] = experiment: Peripheral blood leukocyte number, spleen and cell lineage in drug-administered TT-CML affected mouse; type: in vivo; details: TEW-7197 2.5 mg/kg/day every three days, oral
From the text: The number of leukocyte in the peripheral blood of the drug-administered TT-CML affected mouse is shown in FIG. 3A (n=5, NS: not significant), a photograph of the spleen thereof is shown in FIG. 3B (bar: 10 mm), and the weight of the spleen thereof is shown in FIG. 3C (n=3). Further, percentages (%) of T cell (detected using anti-CD4 antibody and anti-CD8 antibody), B cell (detected using anti-B220 antibody), and bone marrow cell (detected using anti-Macl antibody and anti-Gr-1 antibody) among the total BCR-ABL1-GFP^+ cells in the peripheral blood of the TEW-7197-administered TT-CML affected mouse are shown in FIG. 3D (n=3, NS: not significant).

TT-CML affected mouse [2] = experiment: Flow cytometry of GFP/BCR-ABL+ KLS+ and KLS- cells in TT-CML affected mouse; type: in vivo; details: TEW-7197 2.5 mg/kg/day every three days, oral, 30 days, peripheral blood
Method: GFP/BCR-ABL^+c-Kit^+Lineage^−Sca-1^+(KLS^+) cells (bold box) and c-Kit^+Lineage^−Sca-1^− (KLS^−) cells (dotted box) in the peripheral blood were analyzed by flow cytometry, and the results are shown in FIG. 4A.

[3] = test system: TKI-resistant T315I TT-CML affected mouse; experiment: Flow cytometry of T315I BCR-ABL-GFP+ KLS+ and KLS- cells in TKI-resistant T315I TT-CML affected mouse; type: in vivo; details: ponatinib 15 mg/kg/day, TEW-7197 2.5 mg/kg/day every three days, oral, 30 days; peripheral blood; FIG. 5C
Method: T315I BCR-ABL-GFP^+KLS^+ cells (bold box) and KLS^− cells (dotted box) in the peripheral blood were analyzed by flow cytometry, and the results are shown in FIG. 5A.

[4] = test system: human CML-initiating cells; experiment: Colony formation of human CML-initiating cells (CD34+CD38-Lin-) co-cultured with OP-9 stromal cells; type: cell-based; details: cells of three CML patients, co-culture with OP-9, 3% oxygen; combination compared to single treatment of dasatinib; FIGS. 6A-6C
Method: Bone marrow mononuclear cells (Allcells, Cat. No. 06-255, 06-620, and 147742, CA) of three patients with chronic CML were prepared. Bone marrow mononuclear cells were stained with anti-CD34(8G12) antibody (BD Biosciences), anti-CD38(HIT2) antibody (BD Biosciences), anti-CD3(SK7) antibody (BD Biosciences), anti-CD16(3G8) antibody (BD Biosciences), anti-CD19(SJ25C1) antibody (BD Biosciences), anti-CD20([…]) antibody (BD Biosciences), anti-CD14(MfP9) antibody (BD Biosciences), and anti-CD56(NCAM16.2) antibody (BD Biosciences). A mouse antibody cocktail recognizing CD3, CD16, CD19, CD20, CD14 and CD56 was used to identify Lineage^- (Lin^-) cells, and CD34^+CD38^-Lin^- cells were separated. […] A control group was prepared in the same manner, except that DMSO was used. Cells were harvested and washed with PBS, and then cultured in methyl cellulose (Stem cell technologies, GFM3434) to measure colony formation of human CML-initiating cells.

SMILES: Cc1cccc(-c2[nH]c(CNc3ccccc3F)nc2-c2ccc3ncnn3c2)n1 [TEW-7197, N-((4-([1,2,4]triazolo[1,5-a]pyridin-6-yl)-5-(6-methylpyridin-2-yl)-1H-imidazol-2-yl)methyl)-2-fluoroaniline]
- differentiation of bone marrow cells among the BCR-ABL1-GFP+ cells in peripheral blood (TT-CML affected mouse [1]; FIG. 3D): did not affect differentiation of bone marrow cells
- number of leukocyte in the peripheral blood (TT-CML affected mouse [1]; dasatinib 5 mg/kg/day, about 30 days, compared to vehicle, FIG. 3A): increased
- splenomegaly (spleen weight) (TT-CML affected mouse [1]; dasatinib 5 mg/kg/day, about 30 days, compared to vehicle, FIGS. 3B, 3C): promoted
- percentage of KLS+ cells among BCR-ABL1-GFP+ CML cells (TT-CML affected mouse [2]; FIG. 4C): remarkably decreased
- percentage of KLS- cells among BCR-ABL1-GFP+ CML cells (TT-CML affected mouse [2]; dasatinib 5 mg/kg/day, FIG. 4B): remarkably decreased
- percentage of T315I BCR-ABL-GFP+KLS+ cells [3]: remarkably decreased
- colony formation of human CML-initiating cells [4]: significantly inhibited colony formation
